Test results: patent US12568972B2, “Pyridazinol compounds and derivatives, preparation methods, herbicidal compositions and applications thereof” (Qingdao Kingagroot Chemical Compound Co., Ltd., priority 2018, dated 2026)

Assays:
Assay in all cases: Post-emergence test, weed control effect
Format in all cases: in vivo
Details in all cases: after 3 weeks
Chenopodiaceae = tested on: Chenopodiaceae
Method in brief: (§1)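 Score 0-10 (10 = completely dead, 1 = below 20%, 0 = no effect) from fresh-weight growth inhibition, read 3 weeks after a post-emergence spray. Greenhouse pot plants at 2-3 leaves; spray solution acetone/Tween-80/water with 80% vegetable oil methyl ester synergist at 1500 g/ha.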

Amaranthus retroflexus = tested on: Amaranthus retroflexus
Method in brief: as §1

Rorippa indica = tested on: Rorippa indica
Method in brief: as §1

Veronica polita = tested on: Veronica polita
Method in brief: as §1

Oc1cc(C(F)(F)F)nnc1-c1cccc2cnccc12 [Compound 636]
10: weed control effect (activity level), Chenopodiaceae (Chenopodiaceae; Dose 3000 g/ha) | weed control effect (activity level), Amaranthus retroflexus (Amaranthus retroflexus; Dose 3000 g/ha) | weed control effect (activity level), Rorippa indica (Rorippa indica; Dose 3000 g/ha) | weed control effect (activity level), Veronica polita (Veronica polita; Dose 3000 g/ha)

CN1CCN(C(=O)Oc2cc(C(F)(F)F)nnc2-c2ccc(F)cc2)CC1 [Compound 1-64]
10: weed control effect, Chenopodiaceae (activity level) (Chenopodiaceae; Dose 3000 g/ha) | weed control effect, Amaranthus retroflexus (activity level) (Amaranthus retroflexus; Dose 3000 g/ha) | weed control effect, Rorippa indica (activity level) (Rorippa indica; Dose 3000 g/ha) | weed control effect, Veronica polita (activity level) (Veronica polita; Dose 3000 g/ha)

CCc1cccc(-c2nnc(C(F)(F)F)cc2OS(=O)(=O)CS(C)(=O)=O)c1 [Compound 1-123]
10: weed control effect, Chenopodiaceae (activity level) (Chenopodiaceae; Dose 3000 g/ha) | weed control effect, Amaranthus retroflexus (activity level) (Amaranthus retroflexus; Dose 3000 g/ha) | weed control effect, Rorippa indica (activity level) (Rorippa indica; Dose 3000 g/ha) | weed control effect, Veronica polita (activity level) (Veronica polita; Dose 3000 g/ha)

CCN(CC)C(=S)Oc1cc(C(F)(F)F)nnc1-c1ccc(F)cc1 [Compound 1-162]
10: weed control effect, Chenopodiaceae (activity level) (Chenopodiaceae; Dose 3000 g/ha) | weed control effect, Amaranthus retroflexus (activity level) (Amaranthus retroflexus; Dose 3000 g/ha) | weed control effect, Rorippa indica (activity level) (Rorippa indica; Dose 3000 g/ha) | weed control effect, Veronica polita (activity level) (Veronica polita; Dose 3000 g/ha)

CC(C)=NOc1cc(C(F)(F)F)nnc1-c1ccc(F)c(F)c1 [Compound 1-169]
10: weed control effect, Chenopodiaceae (activity level) (Chenopodiaceae; Dose 3000 g/ha) | weed control effect, Amaranthus retroflexus (activity level) (Amaranthus retroflexus; Dose 3000 g/ha) | weed control effect, Rorippa indica (activity level) (Rorippa indica; Dose 3000 g/ha) | weed control effect, Veronica polita (activity level) (Veronica polita; Dose 3000 g/ha)

Oc1cc(C(F)(F)F)nnc1-c1cccnc1Br [Compound 965]
10: weed control effect (activity level), Chenopodiaceae (Chenopodiaceae; Dose 3000 g/ha) | weed control effect (activity level), Amaranthus retroflexus (Amaranthus retroflexus; Dose 3000 g/ha) | weed control effect (activity level), Rorippa indica (Rorippa indica; Dose 3000 g/ha) | weed control effect (activity level), Veronica polita (Veronica polita; Dose 3000 g/ha)

CCS(=O)Oc1cc(C(F)(F)F)nnc1-c1ccc(F)c(F)c1 (stereo not drawn) [Compound 1-165]
10: weed control effect, Chenopodiaceae (activity level) (Chenopodiaceae; Dose 3000 g/ha) | weed control effect, Amaranthus retroflexus (activity level) (Amaranthus retroflexus; Dose 3000 g/ha) | weed control effect, Rorippa indica (activity level) (Rorippa indica; Dose 3000 g/ha) | weed control effect, Veronica polita (activity level) (Veronica polita; Dose 3000 g/ha)

Oc1cc(C(F)(F)F)nnc1-c1cccnc1I [Compound 969]
10: weed control effect (activity level), Chenopodiaceae (Chenopodiaceae; Dose 3000 g/ha) | weed control effect (activity level), Amaranthus retroflexus (Amaranthus retroflexus; Dose 3000 g/ha) | weed control effect (activity level), Rorippa indica (Rorippa indica; Dose 3000 g/ha) | weed control effect (activity level), Veronica polita (Veronica polita; Dose 3000 g/ha)

Oc1cc(C(F)(F)F)nnc1-c1cc(C(F)(F)F)ccc1F [Compound 50]
10: weed control effect (activity level), Chenopodiaceae (Chenopodiaceae; dose 1000 g/ha) | weed control effect (activity level), Amaranthus retroflexus (Amaranthus retroflexus; dose 1000 g/ha) | weed control effect (activity level), Rorippa indica (Rorippa indica; dose 1000 g/ha) | weed control effect (activity level), Veronica polita (Veronica polita; dose 1000 g/ha)

CCc1cc(-c2nnc(C(F)(F)F)cc2O)n(C)n1 [Compound 780]
10: weed control effect (activity level), Chenopodiaceae (Chenopodiaceae; Dose 3000 g/ha) | weed control effect (activity level), Amaranthus retroflexus (Amaranthus retroflexus; Dose 3000 g/ha) | weed control effect (activity level), Rorippa indica (Rorippa indica; Dose 3000 g/ha) | weed control effect (activity level), Veronica polita (Veronica polita; Dose 3000 g/ha)

Cc1cccc(C2CC2)c1-c1nnc(C(F)(F)F)cc1O [Compound 735]
10: weed control effect (activity level), Chenopodiaceae (Chenopodiaceae; dose 1000 g/ha) | weed control effect (activity level), Amaranthus retroflexus (Amaranthus retroflexus; dose 1000 g/ha) | weed control effect (activity level), Rorippa indica (Rorippa indica; dose 1000 g/ha) | weed control effect (activity level), Veronica polita (Veronica polita; dose 1000 g/ha)

Oc1cc(C(F)(F)F)nnc1-c1cncc2ccccc12 [Compound 637]
10: weed control effect (activity level), Chenopodiaceae (Chenopodiaceae; Dose 3000 g/ha) | weed control effect (activity level), Amaranthus retroflexus (Amaranthus retroflexus; Dose 3000 g/ha) | weed control effect (activity level), Rorippa indica (Rorippa indica; Dose 3000 g/ha) | weed control effect (activity level), Veronica polita (Veronica polita; Dose 3000 g/ha)

CC(=O)c1cccc(S(=O)(=O)Oc2cc(C(F)(F)F)nnc2-c2ccccc2)c1 [Compound 1-140]
10: weed control effect, Chenopodiaceae (activity level) (Chenopodiaceae; Dose 3000 g/ha) | weed control effect, Amaranthus retroflexus (activity level) (Amaranthus retroflexus; Dose 3000 g/ha) | weed control effect, Rorippa indica (activity level) (Rorippa indica; Dose 3000 g/ha) | weed control effect, Veronica polita (activity level) (Veronica polita; Dose 3000 g/ha)

CCOc1ccc(F)c(-c2nnc(C(F)(F)F)cc2O)c1F [Compound 81]
10: weed control effect (activity level), Chenopodiaceae (Chenopodiaceae; dose 1000 g/ha) | weed control effect (activity level), Amaranthus retroflexus (Amaranthus retroflexus; dose 1000 g/ha) | weed control effect (activity level), Rorippa indica (Rorippa indica; dose 1000 g/ha) | weed control effect (activity level), Veronica polita (Veronica polita; dose 1000 g/ha)

Cn1ncc(Cl)c1-c1nnc(C(F)(F)F)cc1O [Compound 805]
10: weed control effect (activity level), Chenopodiaceae (Chenopodiaceae; Dose 3000 g/ha) | weed control effect (activity level), Amaranthus retroflexus (Amaranthus retroflexus; Dose 3000 g/ha) | weed control effect (activity level), Rorippa indica (Rorippa indica; Dose 3000 g/ha) | weed control effect (activity level), Veronica polita (Veronica polita; Dose 3000 g/ha)

Oc1cc(C(F)(F)F)nnc1-c1c(F)cc(F)cc1F [Compound 52]
10: weed control effect (activity level), Chenopodiaceae (Chenopodiaceae; dose 1000 g/ha) | weed control effect (activity level), Amaranthus retroflexus (Amaranthus retroflexus; dose 1000 g/ha) | weed control effect (activity level), Rorippa indica (Rorippa indica; dose 1000 g/ha) | weed control effect (activity level), Veronica polita (Veronica polita; dose 1000 g/ha)

C#Cc1cc(OC2CC2)ncc1-c1nnc(C(F)(F)F)cc1O [Compound 231]
10: weed control effect (activity level), Chenopodiaceae (Chenopodiaceae; dose 2000 g/ha) | weed control effect (activity level), Amaranthus retroflexus (Amaranthus retroflexus; dose 2000 g/ha) | weed control effect (activity level), Rorippa indica (Rorippa indica; dose 2000 g/ha) | weed control effect (activity level), Veronica polita (Veronica polita; dose 2000 g/ha)

Cc1cc(Cl)ncc1-c1nnc(C(F)(F)F)cc1O [Compound 1018]
10: weed control effect (activity level), Chenopodiaceae (Chenopodiaceae; Dose 3000 g/ha) | weed control effect (activity level), Amaranthus retroflexus (Amaranthus retroflexus; Dose 3000 g/ha) | weed control effect (activity level), Rorippa indica (Rorippa indica; Dose 3000 g/ha) | weed control effect (activity level), Veronica polita (Veronica polita; Dose 3000 g/ha)
